The values below are quoted from earlier work in the CATMoS acute toxicity set (Mansouri et al. 2021).

Values joined by “and” are separate entries in the source; they are usually repeats but may differ in a detail not shown here. Equal values may be shown once.

A short description of this data set: rat acute oral toxicity. The settings on record: in vivo.
A word on the LD50: it is the dose expected to kill half of the subjects tested. For the compound `CCOP(=S)(OCC)SCn1nc(C)ccc1=O`, the LD50 is 45 mg/kg.
Take `O=C(Nc1ccccc1)c1ccccc1I`: the LD50 was 6400 mg/kg.
As for `Cc1nc([N+](=O)[O-])cn1-c1ccc([N+](=O)[O-])cc1`, the median lethal dose (LD50) is 4810 mg/kg.
On to `CNC(=O)Oc1ccc(CC#N)cc1`, for which the LD50 was 511 mg/kg.
As for `Cc1ccc(Cl)cc1N`, the median lethal dose (LD50) is 464 mg/kg.
Consider `N#CCCC[Si](Cl)(Cl)Cl`, for which the 50% lethal dose (LD50) is 2830 mg/kg.
Turning to `CCOP(=S)(OCC)SCSC(C)C`, the LD50 was 1.1 mg/kg.
On to `CC(C)OC(=O)c1ccccc1`, for which the LD50 is 3730 mg/kg.
With `FCOC(C(F)(F)F)C(F)(F)F`, the LD50 was 10800 mg/kg.
As to `Cc1c(O)cc([N+](=O)[O-])cc1[N+](=O)[O-]`, the LD50 is 25 mg/kg.
With `O=C(Nc1ccc(Br)cc1)c1cc(Br)cc(Br)c1O`, the 50% lethal dose (LD50) is 410 mg/kg.
As for `Cc1cccc2sc(N)nc12`, the median lethal dose (LD50) was 500 mg/kg.
On to `O=C(O)c1ccccc1C(=O)Nc1ccccc1`, for which the LD50 is 8840 mg/kg.
Turning to `O=C(C(F)(F)F)C(F)(F)F`, the LD50 was 190 mg/kg and 191 mg/kg.
Regarding `CCCc1cc(C(N)=S)ccn1`, the median lethal dose (LD50) was 1320 mg/kg.
For `OCCN1CCN(CCC=C2c3ccccc3Sc3ccc(C(F)(F)F)cc32)CC1`, the LD50 was 791 mg/kg.
In the case of `CC(C(=O)O)c1ccc2oc(-c3ccc(Cl)cc3)nc2c1` (stereo unspecified), the 50% lethal dose (LD50) is 118 mg/kg.
`CC1=NN(c2ccc(C)cc2)C(=O)C1`: the median lethal dose (LD50) was 7450 mg/kg.
`Nc1ccc(Br)cc1`: the median lethal dose (LD50) is 456 mg/kg.
On to `CCC(C)(C)OC(=O)Nc1ccco1`, for which the median lethal dose (LD50) is 190 mg/kg.
As to `CCc1c(C)nc2cc(C)cc(C)n2c1=O`, the LD50 was 1500 mg/kg.
`OCC1CC2CC1C1CCC(CO)C21` (stereo unspecified): the 50% lethal dose (LD50) was 2250 mg/kg.
For `Cc1ncoc1C#N`, the LD50 is 735 mg/kg.
With `ClC(Cl)C(Cl)(Cl)Cl`, the LD50 was 920 mg/kg.
`O=S(=O)(O)c1ccc2c(c1)-c1nc-2nc2[nH]c(nc3nc(nc4[nH]c(n1)c1ccccc41)-c1ccccc1-3)c1ccccc21`: the LD50 was 3600 mg/kg.
Regarding `CCC(=O)OC1CCC(N2CCCCC2)CC1` (stereo unspecified), the LD50 is 1980 mg/kg.
As for `Oc1cc2c3c(c1)c1cc4c(cc1c[n+]3CC2)OCO4`, the median lethal dose (LD50) is 90 mg/kg.
Consider `C=CCNP(=O)(OC=C(Cl)Cl)OCCCl` (stereo unspecified), for which the LD50 is 25 mg/kg.
For the compound `c1ccc(C2=C(c3ccccc3)SCCO2)cc1`, the 50% lethal dose (LD50) was 3000 mg/kg.
For `CCCCCCCCOP(=O)(O)OCCC(Cl)Cl`, the LD50 is 10300 mg/kg.
With `CC(=O)CC(=O)Nc1ccccc1`, the 50% lethal dose (LD50) was 2450 mg/kg.
Take `O=C(O)C(S)C(S)C(=O)O` (stereo unspecified): the 50% lethal dose (LD50) was 4000 mg/kg.
As to `CC(C)CCCCCOC(=O)COc1ccc(Cl)cc1Cl`, the median lethal dose (LD50) was 982 mg/kg.
For `O=C1c2ccccc2C(=O)N1SC1CCCCC1`, the median lethal dose (LD50) is 2600 mg/kg.
On to `CC(=O)OCC(C)OC(C)=O` (stereo unspecified), for which the LD50 was 13500 mg/kg.
With `CC(Oc1ccc(Oc2ncc(Cl)cc2Cl)cc1)C(=O)N1CCCO1` (stereo unspecified), the LD50 is 500 mg/kg.
On to `CCCC(C)OC(N)=O` (stereo unspecified), for which the 50% lethal dose (LD50) is 421 mg/kg.
For `c1ccc(N(CCN2CCCCC2)Cc2ccccn2)cc1`, the LD50 was 806 mg/kg and 740 mg/kg.
`Fc1ccc(C(c2ccccc2)(c2ccccc2F)n2ccnc2)cc1` (stereo unspecified): the LD50 is 808 mg/kg.
Regarding `Nc1ccc(S(=O)(=O)O)c2cccc(S(=O)(=O)O)c12`, the LD50 was 56000 mg/kg.
Regarding `C=CC(Cl)=C(Cl)Cl`, the LD50 is 680 mg/kg.
As to `CCCC[P+](CCCC)(CCCC)CCCC`, the median lethal dose (LD50) is 916 mg/kg and 420 mg/kg.
In the case of `O=c1c(F)cn(C2CCCO2)c(=O)n1C1CCCO1` (stereo unspecified), the LD50 is 1730 mg/kg.
Turning to `CON=CC1=CCCN(OC(=O)Nc2ccc(Cl)cc2)C1`, the 50% lethal dose (LD50) was 500 mg/kg.
For `O=C(Cl)CCl`, the 50% lethal dose (LD50) is 208 mg/kg.
In the case of `CCO[Si](CC)(OCC)OCC`, the LD50 is 14000 mg/kg.
Regarding `C=Cc1ccc(OCC2CO2)cc1` (stereo unspecified), the median lethal dose (LD50) is 1000 mg/kg.
With `CC(C)NCC(O)c1ccccc1Cl` (stereo unspecified), the LD50 is 450 mg/kg and 445 mg/kg.
For the compound `C=CCOC(=O)OC(=C)C(=O)OCC=C`, the median lethal dose (LD50) is 390 mg/kg.
Regarding `CCOC(=O)COC(=O)c1cc(Oc2ccc(C(F)(F)F)cc2Cl)ccc1[N+](=O)[O-]`, the 50% lethal dose (LD50) was 1480 mg/kg.
For the compound `CCCCCCCCCCCCCCCCCC(=O)NC(CCC(=O)O)C(=O)O` (stereo unspecified), the LD50 is 3000 mg/kg.
Regarding `CCC1C(c2ccccc2)=CCC(C(=O)O)C1C` (stereo unspecified), the LD50 was 2350 mg/kg.
Take `CCCOCCOC(C)=O`: the LD50 was 9460 mg/kg.
Turning to `CCOP(=O)(OCC)SC(C)C`, the LD50 is 179 mg/kg.
With `CCOC(=O)Cc1ccc(-c2ccccc2)cc1`, the median lethal dose (LD50) was 385 mg/kg.
As to `O=C1OC(=O)C2CC=CCC12` (stereo unspecified), the LD50 is 5410 mg/kg.
Turning to `C#CCc1ccc(COC(=O)C2C(C=C(C)C)C2(C)C)o1` (stereo unspecified), the median lethal dose (LD50) was 10000 mg/kg.
`COc1ccc(C(N)=O)cc1C(=O)NCc1cccnc1`: the median lethal dose (LD50) is 1720 mg/kg.
`Cc1cccn2c(=O)c(-c3nnn[nH]3)cnc12`: the median lethal dose (LD50) was 687 mg/kg.
On to `CC(=O)C(NC(=O)C(C)C(O)C(C)NC(=O)C(NC(=O)c1nc(C(CC(N)=O)NCC(N)C(N)=O)nc(N)c1C)C(OC1OC(CO)C(O)C(O)C1(C)OC1OC(CO)C(O)C(O)(C(N)=O)C1O)c1cnc[nH]1)C(=O)NCCC1=NC(c2nc(C(N)=O)cs2)CS1` (stereo unspecified), for which the LD50 was 649 mg/kg.
Take `CCCC(Cn1cncn1)c1ccc(Cl)cc1Cl` (stereo unspecified): the LD50 is 2120 mg/kg.
